Measured values taken from the supplement of paper PMC10307832.

Key:
Assay in all cases: relative viability (nuclei count vs DMSO), 5 days (fraction); higher = more cells survive
XMD8-85 + Lapatinib = compound: CN1CCN(CC1)C2=CC(=C(C=C2)NC3=NC=C4C(=N3)N(C5=CC=CC=C5C(=O)N4C)C)OC [XMD8-85] + CS(=O)(=O)CCNCc1ccc(-c2ccc3ncnc(Nc4ccc(OCc5cccc(F)c5)c(Cl)c4)c3c2)o1 [Lapatinib] (partner 2 µM)
Method in brief: (§1)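 Dosing by pin tool came one day after lung cancer cell lines were seeded in 1536-well plates, using either one drug or a fixed anchor-drug dose plus five library-drug doses (not always all listed) in √10 steps. After 5 days, nuclei were counted on 4× images. Relative viability is treated-well nuclei count divided by vehicle-well nuclei count, and values are medians of duplicate plates.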

4EGI-1 + Palbociclib = compound: O=C(O)C(Cc1ccccc1[N+](=O)[O-])=NNc1nc(-c2ccc(Cl)c(Cl)c2)cs1 (mixture of isomers) [4EGI-1] + CC(=O)c1c(C)c2cnc(Nc3ccc(N4CCNCC4)cn3)nc2n(C2CCCC2)c1=O [Palbociclib] (partner 0.5 µM)
Method in brief: as §1

4EGI-1 + Luminespib = compound: O=C(O)C(Cc1ccccc1[N+](=O)[O-])=NNc1nc(-c2ccc(Cl)c(Cl)c2)cs1 (mixture of isomers) [4EGI-1] + CCNC(=O)c1noc(-c2cc(C(C)C)c(O)cc2O)c1-c1ccc(CN2CCOCC2)cc1 [Luminespib] (partner 0.01 µM)
Method in brief: as §1

4EGI-1 + Phenformin = compound: O=C(O)C(Cc1ccccc1[N+](=O)[O-])=NNc1nc(-c2ccc(Cl)c(Cl)c2)cs1 (mixture of isomers) [4EGI-1] + N=C(N)NC(=N)NCCc1ccccc1 [Phenformin] (partner 250 µM)
Method in brief: as §1

| Cell Line | relative viability (XMD8-85 + Lapatinib; first compound 0.08 µM) | relative viability (XMD8-85 + Lapatinib; first compound 0.253 µM) | relative viability (XMD8-85 + Lapatinib; first compound 0.8 µM) | relative viability (XMD8-85 + Lapatinib; first compound 2.53 µM) | relative viability (XMD8-85 + Lapatinib; first compound 8 µM) | relative viability (4EGI-1 + Palbociclib; first compound 0.5 µM) | relative viability (4EGI-1 + Palbociclib; first compound 5 µM) | relative viability (4EGI-1 + Palbociclib; first compound 15.81 µM) | relative viability (4EGI-1 + Palbociclib; first compound 50 µM) | relative viability (4EGI-1 + Luminespib; first compound 0.5 µM) | relative viability (4EGI-1 + Luminespib; first compound 5 µM) | relative viability (4EGI-1 + Luminespib; first compound 15.81 µM) | relative viability (4EGI-1 + Luminespib; first compound 50 µM) | relative viability (4EGI-1 + Phenformin; first compound 0.5 µM) | relative viability (4EGI-1 + Phenformin; first compound 5 µM) | relative viability (4EGI-1 + Phenformin; first compound 15.81 µM) | relative viability (4EGI-1 + Phenformin; first compound 50 µM) | relative viability (4EGI-1 + Palbociclib; first compound 1.581 µM) | relative viability (4EGI-1 + Phenformin; first compound 1.581 µM) | relative viability (4EGI-1 + Luminespib; first compound 1.581 µM) |
| --- | --- | --- | --- | --- | --- | --- | --- | --- | --- | --- | --- | --- | --- | --- | --- | --- | --- | --- | --- | --- |
| LK-2 | 0.691 | 0.994 | 0.771 | 0.552 | 0.653 | 0.692 | 0.639 | 0.803 | 0.539 | 0.192 | 0.269 | 0.206 | 0.162 | 0.464 | 0.639 | 0.437 | 0.0912 | – | – | – |
| EPLC-272H | – | 0.824 | 1.02 | 0.905 | 0.566 | 0.317 | 0.367 | 0.274 | 0.301 | 0.498 | 0.318 | 0.251 | 0.206 | 0.348 | 0.302 | 0.273 | 0.158 | – | – | – |
| HCC-366 | 0.94 | 1.12 | 1.09 | 0.994 | 1.06 | 0.396 | 0.396 | 0.272 | 0.0604 | – | – | – | – | 0.676 | 0.741 | 0.631 | 0.443 | 0.224 | 0.569 | – |
| NCI-H1793 | 0.845 | 0.826 | 0.857 | 0.781 | 0.814 | 0.339 | 0.329 | 0.235 | 0.205 | 0.246 | 0.197 | 0.176 | 0.139 | 0.375 | 0.418 | 0.367 | 0.297 | 0.333 | 0.47 | 0.246 |
| NCI-H3122 | 1.12 | 1.01 | 1.04 | 1.09 | 0.965 | 0.191 | 0.152 | 0.227 | 0.199 | 0.082 | 0.0842 | 0.106 | 0.084 | 0.372 | 0.378 | 0.33 | 0.169 | 0.158 | – | 0.129 |
| NCI-H596 | 1.01 | 1.03 | 1.24 | 1.03 | 0.874 | – | – | – | – | 1.02 | 1.03 | 1.07 | 0.508 | 0.859 | 1.01 | 0.961 | 0.705 | – | 0.732 | 0.955 |
| NCI-H2087 | 1.01 | 1.08 | 1.05 | 1.12 | 0.974 | 0.281 | 0.244 | 0.163 | 0.16 | 0.191 | 0.198 | 0.206 | 0.135 | 0.498 | 0.435 | 0.394 | 0.193 | 0.243 | 0.468 | 0.139 |
| NCI-H2342 | – | – | – | – | – | 0.506 | 0.582 | 0.59 | 0.539 | 0.854 | 0.724 | 0.904 | 0.677 | 0.582 | 0.716 | 0.641 | 0.522 | 0.547 | 0.588 | 0.758 |
| NCI-H1563 | 1.04 | 0.87 | 1.01 | 0.822 | 0.7 | – | – | – | – | 0.447 | 0.542 | 0.5 | 0.412 | 0.624 | 0.602 | 0.69 | 0.55 | – | 0.613 | 0.567 |
| LCLC-103H | – | – | – | – | – | 0.495 | 0.503 | 0.457 | 0.347 | 0.984 | 0.989 | 0.82 | 0.618 | 0.337 | 0.34 | 0.354 | 0.287 | 0.49 | 0.349 | 0.898 |
| Calu-6 | 1.02 | 1.09 | 1.11 | 1.03 | 0.899 | – | – | – | – | – | – | – | – | – | – | – | – | – | – | – |
| NCI-H1299 | 1 | 0.985 | 0.977 | 0.974 | 0.67 | – | – | – | – | – | – | – | – | – | – | – | – | – | – | – |
| EBC-1 | 0.2 | 0.21 | 0.174 | 0.184 | 0.172 | – | – | – | – | – | – | – | – | – | – | – | – | – | – | – |
| HCC-78 | 0.84 | – | 0.751 | 0.565 | 0.223 | 0.471 | 0.434 | 0.432 | 0.488 | – | – | – | – | 0.812 | 0.741 | 0.668 | 0.658 | 0.462 | – | – |
| NCI-H1703 | – | 1.22 | 1.25 | 1.26 | 0.841 | – | – | – | – | – | – | – | – | – | – | – | – | – | – | – |
| NCI-H441 | – | – | – | – | – | 0.283 | 0.23 | 0.185 | 0.146 | 0.375 | 0.294 | 0.306 | 0.292 | 1.04 | 0.919 | 0.785 | 0.183 | 0.2 | 0.76 | 0.315 |
| NCI-H1648 | – | – | – | – | – | 0.271 | 0.314 | 0.275 | 0.253 | – | – | – | – | – | – | – | – | 0.232 | – | – |
| SW 900 | – | – | – | – | – | 0.552 | 0.69 | 0.395 | 0.234 | 0.253 | 0.177 | 0.156 | 0.191 | 0.812 | 0.807 | 0.527 | 0.322 | 0.573 | – | – |
| NCI-H522 | – | – | – | – | – | 1.07 | 1.2 | 1.08 | 0.953 | 1.18 | 1.13 | 1.33 | 0.711 | 0.641 | 0.676 | 0.626 | 0.551 | 0.822 | 0.548 | 0.612 |
| ChaGo-K-1 | – | – | – | – | – | 0.95 | 0.973 | 1.01 | 0.556 | 0.631 | 0.62 | 0.517 | 0.491 | 0.447 | 0.543 | 0.49 | 0.351 | 0.936 | 0.439 | 0.38 |
